{"source": "patent US8921362B2", "about": "“6,7-dialkoxy quinazoline derivatives and methods of treating drug resistant and other tumors” (Natco Pharma Limited, priority 2008, dated 2014)", "key": {"[1]": {"experiment": "Acute toxicity (LD0, LD50)", "assay_type": "in vivo", "details": "both, mouse, in vivo, po, 7 days", "description": "[…]. The doses 500, 750, 1000 and 2000 mg/Kg were administered orally. Each group included 5 mice. […] The survived animals were autopsied for asserting the absorption of compound through g.i.t. The LD50 was determined according to the method described in Litchfield and Wilcoxon (J. Pharmacol. Exp. Ther. 1949, 96:99-113)."}, "EGFR(L858R)": {"biological_target": "T1, EGFR(L858R) (Homo sapiens, UniProt P00533, L858R)", "T1 construct": "purchased Ambit Biosciences Corp; host or cells: T7 phage in E. coli host derived from BL21", "experiment": "KinomeScan", "assay_type": "binding", "details": "read-out: % Ctrl @ 10000 nM", "in_short": "(§1)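 In this phage-display binding screen, compound competes with immobilized ligand for the kinase fusion, and bead-bound phage, eluted after washing, is titered by qPCR.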"}, "PKAC-beta": {"biological_target": "T2, PKAC-beta (Homo sapiens, UniProt P22694)", "T2 construct": "host or cells: T7 phage in E. coli host derived from BL21", "experiment": "KinomeScan", "assay_type": "binding", "details": "read-out: % Ctrl @ 10000 nM", "in_short": "as §1"}, "IKK-epsilon": {"biological_target": "T3, IKK-epsilon (Homo sapiens, UniProt Q14164)", "T3 construct": "host or cells: T7 phage grown in E. coli host derived from BL21", "experiment": "KinomeScan", "assay_type": "binding", "details": "read-out: % Ctrl @ 10000 nM", "in_short": "as §1"}, "FLT4": {"biological_target": "T4, FLT4 (Homo sapiens, UniProt P35916)", "T4 construct": "host or cells: T7 phage in E. coli host derived from BL21", "experiment": "KinomeScan", "assay_type": "binding", "details": "read-out: % Ctrl @ 10000 nM", "in_short": "as §1"}, "PRKD2": {"biological_target": "T5, PRKD2 (Homo sapiens, UniProt Q9BZL6)", "T5 construct": "host or cells: T7 phage in E. coli host derived from BL21", "experiment": "KinomeScan", "assay_type": "binding", "details": "read-out: % Ctrl @ 10000 nM", "in_short": "as §1"}, "VEGFR2": {"biological_target": "T6, VEGFR2 (Homo sapiens, UniProt P35968)", "T6 construct": "host or cells: E. coli host derived from BL21, T7 phage", "experiment": "KinomeScan", "assay_type": "binding", "details": "read-out: % Ctrl @ 10000 nM", "in_short": "as §1"}, "MAPKAPK2": {"biological_target": "T7, MAPKAPK2 (Homo sapiens, UniProt P49137)", "T7 construct": "host or cells: E. coli host derived from the BL21 strain, infected with T7 phage", "experiment": "KinomeScan", "assay_type": "binding", "details": "read-out: % Ctrl @ 10000 nM", "in_short": "as §1"}, "MST1R": {"biological_target": "T8, MST1R (Homo sapiens, UniProt Q04912)", "T8 construct": "host or cells: T7 phage grown in E. coli host derived from BL21", "experiment": "KinomeScan", "assay_type": "binding", "details": "read-out: % Ctrl @ 10000 nM", "in_short": "as §1"}, "NDR2": {"biological_target": "T9, NDR2 (Homo sapiens, UniProt Q9Y2H1)", "T9 construct": "host or cells: T7 phage grown in E. coli host derived from BL21", "experiment": "KinomeScan", "assay_type": "binding", "details": "read-out: % Ctrl @ 10000 nM", "in_short": "as §1"}, "[2]": {"biological_target": "T10, RPS6KA4(Kin.Dom.-1-N-terminal) (Homo sapiens, UniProt O75676)", "T10 construct": "RPS6KA4(Kin.Dom.-1-N-terminal); host or cells: E. coli host derived from BL21, T7 phage display", "T10 sequence (O75676 33-301 limits assumed)": "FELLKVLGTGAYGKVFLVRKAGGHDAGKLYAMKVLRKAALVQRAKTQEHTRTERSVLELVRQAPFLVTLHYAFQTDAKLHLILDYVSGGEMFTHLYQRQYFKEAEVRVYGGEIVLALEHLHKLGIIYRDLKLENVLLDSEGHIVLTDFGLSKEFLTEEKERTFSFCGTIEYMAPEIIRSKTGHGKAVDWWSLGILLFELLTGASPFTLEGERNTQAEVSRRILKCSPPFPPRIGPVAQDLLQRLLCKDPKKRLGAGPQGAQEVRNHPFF", "experiment": "KinomeScan", "assay_type": "binding", "details": "read-out: % Ctrl @ 10000 nM", "in_short": "as §1"}, "CIT": {"biological_target": "T11, CIT (Homo sapiens, UniProt O14578)", "T11 construct": "host or cells: T7 phage in E. coli host derived from BL21", "experiment": "KinomeScan", "assay_type": "binding", "details": "read-out: % Ctrl @ 10000 nM", "in_short": "as §1"}, "FAK": {"biological_target": "T12, FAK (Homo sapiens, UniProt Q05397)", "T12 construct": "purchased Ambit Biosciences Corp; host or cells: T7 phage in E. coli host derived from BL21", "experiment": "KinomeScan", "assay_type": "binding", "details": "read-out: % Ctrl @ 10000 nM", "in_short": "as §1"}, "PFTK1": {"biological_target": "T13, PFTK1 (Homo sapiens, UniProt O94921)", "T13 construct": "host or cells: E. coli host derived from BL21, infected with T7 phage", "experiment": "KinomeScan", "assay_type": "binding", "details": "read-out: % Ctrl @ 10000 nM", "in_short": "as §1"}, "STK16": {"biological_target": "T14, STK16 (Homo sapiens, UniProt O75716)", "T14 construct": "host or cells: T7 phage grown in E. coli (BL21-derived)", "experiment": "KinomeScan", "assay_type": "binding", "details": "read-out: % Ctrl @ 10000 nM", "in_short": "as §1"}, "PIK3CA(E545K)": {"biological_target": "T15, PIK3CA(E545K) (Homo sapiens, UniProt P42336, E545K)", "T15 construct": "host or cells: E. coli host derived from BL21, infected with T7 phage", "experiment": "KinomeScan", "assay_type": "binding", "details": "read-out: % Ctrl @ 10000 nM", "in_short": "as §1"}, "EPHB2": {"biological_target": "T16, EPHB2 (Homo sapiens, UniProt P29323)", "T16 construct": "purchased Ambit Biosciences Corp; host or cells: T7 phage in E. coli host derived from BL21", "T16 sequence (P29323 19-1055)": "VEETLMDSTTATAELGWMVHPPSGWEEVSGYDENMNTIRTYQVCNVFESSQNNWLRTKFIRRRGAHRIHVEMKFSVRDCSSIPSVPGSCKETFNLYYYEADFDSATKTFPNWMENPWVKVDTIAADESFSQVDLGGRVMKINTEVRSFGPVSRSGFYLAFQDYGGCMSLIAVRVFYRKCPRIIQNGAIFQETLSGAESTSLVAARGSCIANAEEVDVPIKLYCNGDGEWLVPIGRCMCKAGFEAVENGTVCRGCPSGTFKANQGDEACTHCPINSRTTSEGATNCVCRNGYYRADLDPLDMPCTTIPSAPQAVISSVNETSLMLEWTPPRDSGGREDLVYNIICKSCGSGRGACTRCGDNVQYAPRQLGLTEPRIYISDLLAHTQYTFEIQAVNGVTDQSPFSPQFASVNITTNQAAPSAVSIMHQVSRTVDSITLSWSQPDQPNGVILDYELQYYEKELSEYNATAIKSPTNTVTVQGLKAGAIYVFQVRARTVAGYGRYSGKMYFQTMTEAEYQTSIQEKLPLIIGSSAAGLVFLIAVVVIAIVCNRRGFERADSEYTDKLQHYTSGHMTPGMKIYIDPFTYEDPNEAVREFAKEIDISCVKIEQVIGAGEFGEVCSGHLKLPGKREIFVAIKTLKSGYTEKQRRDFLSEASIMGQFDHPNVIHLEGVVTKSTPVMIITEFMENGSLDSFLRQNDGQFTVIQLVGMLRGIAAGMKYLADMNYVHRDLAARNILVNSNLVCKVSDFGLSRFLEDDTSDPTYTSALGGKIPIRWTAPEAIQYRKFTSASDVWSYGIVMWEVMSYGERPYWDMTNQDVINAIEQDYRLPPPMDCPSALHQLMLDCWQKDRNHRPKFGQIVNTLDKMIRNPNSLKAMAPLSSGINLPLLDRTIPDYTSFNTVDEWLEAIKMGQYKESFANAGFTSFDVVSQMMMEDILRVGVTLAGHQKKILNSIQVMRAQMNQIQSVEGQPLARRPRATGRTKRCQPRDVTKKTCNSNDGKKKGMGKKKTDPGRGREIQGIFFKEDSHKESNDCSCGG", "experiment": "KinomeScan", "assay_type": "binding", "details": "read-out: % Ctrl @ 10000 nM", "in_short": "as §1"}, "LYN": {"biological_target": "T17, LYN (Homo sapiens, UniProt P07948)", "T17 construct": "host or cells: E. coli host derived from the BL21 strain, infected with T7 phage", "experiment": "KinomeScan", "assay_type": "binding", "details": "read-out: % Ctrl @ 10000 nM", "in_short": "as §1"}, "EGFR(G719S)": {"biological_target": "T18, EGFR(G719S) (Homo sapiens, UniProt P00533, G719S)", "T18 construct": "purchased Ambit Biosciences Corp (KinomeScan); host or cells: T7 phage in E. coli host derived from BL21", "experiment": "KinomeScan", "assay_type": "binding", "details": "read-out: % Ctrl @ 10000 nM", "in_short": "as §1"}, "SRC": {"biological_target": "T19, SRC (Homo sapiens, UniProt P12931)", "T19 construct": "host or cells: T7 phage grown in E. coli (BL21-derived)", "experiment": "KinomeScan", "assay_type": "binding", "details": "read-out: % Ctrl @ 10000 nM", "in_short": "as §1"}, "ABL1(Y253F)": {"biological_target": "T20, ABL1(Y253F) (Homo sapiens, UniProt P00519, Y253F)", "T20 construct": "host or cells: E. coli (BL21-derived), T7 phage lysate", "experiment": "KinomeScan", "assay_type": "binding", "details": "read-out: % Ctrl @ 10000 nM", "in_short": "as §1"}, "BRK": {"biological_target": "T21, BRK (Homo sapiens, UniProt Q13882)", "T21 construct": "host or cells: E. coli host derived from BL21", "T21 sequence (Q13882 whole entry)": "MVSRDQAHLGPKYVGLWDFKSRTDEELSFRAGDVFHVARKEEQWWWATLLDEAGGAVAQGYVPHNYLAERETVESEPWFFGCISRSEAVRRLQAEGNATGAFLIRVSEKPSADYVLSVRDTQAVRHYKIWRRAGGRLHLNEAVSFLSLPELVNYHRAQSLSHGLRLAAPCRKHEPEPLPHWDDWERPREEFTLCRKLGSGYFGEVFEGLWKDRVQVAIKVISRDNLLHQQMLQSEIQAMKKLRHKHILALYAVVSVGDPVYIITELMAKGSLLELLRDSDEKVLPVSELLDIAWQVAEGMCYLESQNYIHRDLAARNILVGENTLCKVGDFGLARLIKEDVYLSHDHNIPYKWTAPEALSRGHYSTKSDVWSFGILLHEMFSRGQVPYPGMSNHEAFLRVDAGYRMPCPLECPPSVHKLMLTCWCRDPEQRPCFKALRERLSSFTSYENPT", "experiment": "KinomeScan", "assay_type": "binding", "details": "read-out: % Ctrl @ 10000 nM", "in_short": "as §1"}, "TLK1": {"biological_target": "T22, TLK1 (Homo sapiens, UniProt Q9UKI8)", "T22 construct": "host or cells: E. coli host derived from BL21, T7 phage", "T22 sequence (Q9UKI8 whole entry)": "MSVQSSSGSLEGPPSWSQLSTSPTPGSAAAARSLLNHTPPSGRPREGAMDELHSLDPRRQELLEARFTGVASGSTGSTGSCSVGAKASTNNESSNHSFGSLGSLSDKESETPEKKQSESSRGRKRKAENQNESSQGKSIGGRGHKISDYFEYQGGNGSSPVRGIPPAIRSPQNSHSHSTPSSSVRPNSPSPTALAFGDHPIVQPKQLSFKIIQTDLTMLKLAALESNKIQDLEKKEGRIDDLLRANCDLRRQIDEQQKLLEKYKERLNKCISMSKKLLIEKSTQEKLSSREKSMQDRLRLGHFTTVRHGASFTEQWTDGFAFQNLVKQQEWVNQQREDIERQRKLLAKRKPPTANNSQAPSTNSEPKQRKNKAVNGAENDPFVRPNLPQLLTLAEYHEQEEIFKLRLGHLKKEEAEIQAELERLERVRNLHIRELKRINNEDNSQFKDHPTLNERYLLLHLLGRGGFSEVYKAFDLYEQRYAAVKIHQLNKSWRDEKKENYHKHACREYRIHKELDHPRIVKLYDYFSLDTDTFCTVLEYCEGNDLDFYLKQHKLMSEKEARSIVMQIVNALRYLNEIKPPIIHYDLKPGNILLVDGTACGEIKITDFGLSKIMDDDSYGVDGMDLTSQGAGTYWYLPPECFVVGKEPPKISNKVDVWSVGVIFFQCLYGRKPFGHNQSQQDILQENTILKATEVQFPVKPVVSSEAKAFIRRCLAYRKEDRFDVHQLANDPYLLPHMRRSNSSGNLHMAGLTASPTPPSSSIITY", "experiment": "KinomeScan", "assay_type": "binding", "details": "read-out: % Ctrl @ 10000 nM", "in_short": "as §1"}, "SRMS": {"biological_target": "T23, SRMS (Homo sapiens, UniProt Q9H3Y6)", "T23 construct": "host or cells: T7 phage grown in E. coli (BL21-derived)", "experiment": "KinomeScan", "assay_type": "binding", "details": "read-out: % Ctrl @ 10000 nM", "in_short": "as §1"}, "ERBB4": {"biological_target": "ERBB4 (Homo sapiens, UniProt Q15303)", "sequence (Q15303 26-1308)": "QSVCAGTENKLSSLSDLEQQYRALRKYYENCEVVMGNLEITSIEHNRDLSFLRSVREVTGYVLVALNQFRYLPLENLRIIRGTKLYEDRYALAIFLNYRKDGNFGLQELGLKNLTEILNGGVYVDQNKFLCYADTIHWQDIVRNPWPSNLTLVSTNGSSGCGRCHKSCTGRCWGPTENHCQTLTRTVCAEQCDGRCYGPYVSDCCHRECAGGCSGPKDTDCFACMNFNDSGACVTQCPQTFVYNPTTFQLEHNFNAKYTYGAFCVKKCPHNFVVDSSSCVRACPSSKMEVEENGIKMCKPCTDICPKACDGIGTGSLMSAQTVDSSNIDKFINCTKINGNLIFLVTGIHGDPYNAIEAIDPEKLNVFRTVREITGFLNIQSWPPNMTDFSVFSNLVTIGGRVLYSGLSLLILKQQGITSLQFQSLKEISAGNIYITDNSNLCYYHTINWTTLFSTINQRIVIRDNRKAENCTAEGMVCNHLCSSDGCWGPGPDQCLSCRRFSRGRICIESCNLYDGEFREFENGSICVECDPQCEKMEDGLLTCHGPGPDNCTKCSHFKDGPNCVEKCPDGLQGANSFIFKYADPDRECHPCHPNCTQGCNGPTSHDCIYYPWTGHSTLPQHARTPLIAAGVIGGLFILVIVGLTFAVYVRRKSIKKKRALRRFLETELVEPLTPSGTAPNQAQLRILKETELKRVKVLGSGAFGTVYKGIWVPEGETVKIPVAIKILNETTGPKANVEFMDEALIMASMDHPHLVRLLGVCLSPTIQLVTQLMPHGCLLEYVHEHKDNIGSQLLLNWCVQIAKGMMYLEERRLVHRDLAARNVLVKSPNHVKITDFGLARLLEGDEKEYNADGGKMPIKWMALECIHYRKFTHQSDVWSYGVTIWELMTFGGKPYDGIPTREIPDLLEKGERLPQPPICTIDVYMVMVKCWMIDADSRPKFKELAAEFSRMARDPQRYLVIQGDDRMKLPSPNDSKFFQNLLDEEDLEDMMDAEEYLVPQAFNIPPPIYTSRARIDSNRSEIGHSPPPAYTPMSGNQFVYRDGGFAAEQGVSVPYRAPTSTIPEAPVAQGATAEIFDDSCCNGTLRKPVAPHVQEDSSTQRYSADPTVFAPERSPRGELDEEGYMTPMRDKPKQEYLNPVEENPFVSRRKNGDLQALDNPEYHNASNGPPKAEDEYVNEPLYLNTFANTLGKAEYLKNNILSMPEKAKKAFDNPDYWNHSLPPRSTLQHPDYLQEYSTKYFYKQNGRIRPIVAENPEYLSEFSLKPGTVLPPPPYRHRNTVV", "experiment": "KinomeScan", "assay_type": "binding", "parameters": "purchased Ambit Biosciences Corp; host or cells: T7 phage in E. coli host derived from BL21", "details": "read-out: % Ctrl @ 10000 nM", "description": "(§2) Kinase assays: Assays were performed as described in Fabian et al. (2005) Nature Biotechnology, vol. 23, p. 329. Kinase-tagged T7 phage strains were grown in parallel in 24 or 96-well blocks in an E. coli host derived from the BL21 strain. E. coli were grown to log-phase and infected with T7 phage from a frozen stock (multiplicity of infection ˜0.1) and incubated with shaking at 32° C. until lysis (−90 minutes). The lysates were centrifuged and filtered to remove cell debris. […] The liganded beads were blocked with excess biotin and washed with blocking buffer (SeaBlock (Pierce), 1% BSA, 0.05% Tween 20, 1 mM DTT) to remove unbound ligand and to reduce non-specific phage binding.\n(§3) Test compounds were prepared as 40× stocks in DMSO and diluted into the aqueous environment. 2.5% DMSO was added to control assays lacking a test compound. All reactions were performed in polystyrene 96-well plates that had been pretreated with blocking buffer in a final volume of 0.04 ml. […] The phage titer in the eluates was measured by quantitative PCR."}, "ERBB2": {"biological_target": "ERBB2 (Homo sapiens, UniProt P04626)", "sequence (P04626 23-1255)": "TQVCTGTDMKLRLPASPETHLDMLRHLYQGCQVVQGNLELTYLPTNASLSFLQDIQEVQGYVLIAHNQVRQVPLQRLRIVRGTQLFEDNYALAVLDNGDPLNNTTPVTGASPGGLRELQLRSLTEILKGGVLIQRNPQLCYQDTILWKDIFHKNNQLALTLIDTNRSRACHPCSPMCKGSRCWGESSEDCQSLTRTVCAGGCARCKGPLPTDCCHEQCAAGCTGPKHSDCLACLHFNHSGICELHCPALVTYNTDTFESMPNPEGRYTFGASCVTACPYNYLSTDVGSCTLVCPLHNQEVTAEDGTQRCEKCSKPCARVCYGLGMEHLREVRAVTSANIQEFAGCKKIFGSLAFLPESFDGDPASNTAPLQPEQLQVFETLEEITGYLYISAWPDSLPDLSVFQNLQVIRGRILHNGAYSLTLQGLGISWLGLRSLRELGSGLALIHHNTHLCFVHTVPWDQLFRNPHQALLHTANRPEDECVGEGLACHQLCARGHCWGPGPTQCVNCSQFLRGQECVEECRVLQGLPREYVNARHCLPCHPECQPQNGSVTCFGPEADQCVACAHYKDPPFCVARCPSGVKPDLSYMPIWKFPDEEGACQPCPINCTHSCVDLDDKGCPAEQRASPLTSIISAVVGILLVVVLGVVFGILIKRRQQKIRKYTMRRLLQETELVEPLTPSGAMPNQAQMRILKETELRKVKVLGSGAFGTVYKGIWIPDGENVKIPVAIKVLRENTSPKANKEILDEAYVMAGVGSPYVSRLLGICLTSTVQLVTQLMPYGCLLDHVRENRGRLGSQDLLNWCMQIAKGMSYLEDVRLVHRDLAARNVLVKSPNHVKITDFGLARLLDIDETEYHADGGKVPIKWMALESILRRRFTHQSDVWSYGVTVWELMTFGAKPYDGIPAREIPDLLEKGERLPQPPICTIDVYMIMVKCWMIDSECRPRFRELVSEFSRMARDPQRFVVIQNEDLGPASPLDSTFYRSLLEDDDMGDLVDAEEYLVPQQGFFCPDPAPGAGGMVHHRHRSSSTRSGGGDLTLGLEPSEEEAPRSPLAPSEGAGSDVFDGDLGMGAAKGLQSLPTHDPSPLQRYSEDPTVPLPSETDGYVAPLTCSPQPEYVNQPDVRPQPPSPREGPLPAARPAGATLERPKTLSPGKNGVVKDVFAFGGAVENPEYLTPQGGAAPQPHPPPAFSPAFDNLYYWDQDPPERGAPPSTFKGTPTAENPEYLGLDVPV", "experiment": "KinomeScan", "assay_type": "binding", "parameters": "purchased Ambit Biosciences Corp; host or cells: T7 phage in E. coli host derived from BL21", "details": "read-out: % Ctrl @ 10000 nM", "description": "as §2, §3"}}}
{"smiles": "C#Cc1cccc(Nc2ncnc3cc(OC)c(OCCCN4CCOCC4)cc23)c1", "note": "[NRC-2694, N-(3-ethynylphenyl)-7-methoxy-6-[3-(4-morpholinyl)propoxy]-4-quinazolinamine]", "values": [{"measurement": "LD0", "setting": "[1]", "value": 2000, "unit": "mg/kg"}, {"measurement": "remaining binding at 10 µM", "setting": "EGFR(L858R)", "value": 0, "unit": "%"}, {"measurement": "remaining binding at 10 µM", "setting": "PKAC-beta", "value": 88, "unit": "%"}, {"measurement": "remaining binding at 10 µM", "setting": "IKK-epsilon", "value": 75, "unit": "%"}, {"measurement": "remaining binding at 10 µM", "setting": "FLT4", "value": 66, "unit": "%"}, {"measurement": "remaining binding at 10 µM", "setting": "PRKD2", "value": 0.4, "unit": "%"}, {"measurement": "remaining binding at 10 µM", "setting": "VEGFR2", "value": 95, "unit": "%"}, {"measurement": "remaining binding at 10 µM", "setting": "MAPKAPK2", "value": 90, "unit": "%"}, {"measurement": "remaining binding at 10 µM", "setting": "MST1R", "value": 94, "unit": "%"}, {"measurement": "remaining binding at 10 µM", "setting": "NDR2", "value": 74, "unit": "%"}, {"measurement": "remaining binding at 10 µM", "setting": "[2]", "value": 84, "unit": "%"}, {"measurement": "remaining binding at 10 µM", "setting": "CIT", "value": 5, "unit": "%"}, {"measurement": "remaining binding at 10 µM", "setting": "FAK", "value": 85, "unit": "%"}, {"measurement": "remaining binding at 10 µM", "setting": "PFTK1", "value": 71, "unit": "%"}, {"measurement": "remaining binding at 10 µM", "setting": "STK16", "value": 100, "unit": "%"}, {"measurement": "remaining binding at 10 µM", "setting": "PIK3CA(E545K)", "value": 100, "unit": "%"}, {"measurement": "remaining binding at 10 µM", "setting": "EPHB2", "value": 83, "unit": "%"}, {"measurement": "remaining binding at 10 µM", "setting": "LYN", "value": 13, "unit": "%"}, {"measurement": "remaining binding at 10 µM", "setting": "EGFR(G719S)", "value": 0, "unit": "%"}, {"measurement": "remaining binding at 10 µM", "setting": "SRC", "value": 24, "unit": "%"}, {"measurement": "remaining binding at 10 µM", "setting": "ABL1(Y253F)", "value": 23, "unit": "%"}, {"measurement": "remaining binding at 10 µM", "setting": "BRK", "value": 46, "unit": "%"}, {"measurement": "remaining binding at 10 µM", "setting": "TLK1", "value": 77, "unit": "%"}, {"measurement": "remaining binding at 10 µM", "setting": "SRMS", "value": 100, "unit": "%"}, {"measurement": "remaining binding at 10 µM", "setting": "ERBB4", "value": 3.3, "unit": "%"}, {"measurement": "remaining binding at 10 µM", "setting": "ERBB2", "value": 31, "unit": "%"}]}
